Data from the supplement of paper PMC12317010.
Structures can show the parent of a compound that is named as a salt.

Experiment: collision cross section in nitrogen (drift tube, single-field); higher = larger gas-phase ion size
[1] = ion type: [M+Na], ion source: ESI, ion mode: Positive
[2] = ion type: [M+H], ion source: ESI, ion mode: Positive
[3] = ion type: [M-H], ion source: ESI, ion mode: Negative
[4] = ion type: [M+H], ion source: APCI, ion mode: Positive
[5] = ion type: [M+], ion source: APCI, ion mode: Positive
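Also: chemical standards at 10 µM analysed by drift tube IMS-QTOF MS in about 3.95 torr nitrogen, mean of duplicate injections differing ≤1%, mass error below 10 ppm.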

Compound | collision cross section in nitrogen [1] | collision cross section in nitrogen [2] | collision cross section in nitrogen [3] | collision cross section in nitrogen [4] | collision cross section in nitrogen [5]
CCCCOCCOC(=O)CCCCCCCCC(=O)OCCOCCCC [Bis(2-butoxyethyl) decanedioate] | 197.8 Å² |  |  |  | 
CC1=NN(c2ccc(S(=O)(=O)O)cc2)C(=O)C1 |  | 162.7 Å² | 159.1 Å² |  | 
C[As+](C)(C)CC(=O)[O-] [Arsenobetaine] |  | 118 Å² |  |  | 
N#Cc1cc([N+](=O)[O-])ccc1N [2-Amino-5-nitrobenzonitrile] |  |  | 125.1 Å² |  | 
CCc1cc(C)cc(CC)c1-c1c(OC(=O)C(C)(C)C)n2n(c1=O)CCOCC2 [Pinoxaden] | 202.8 Å² | 196.6 Å² |  | 196.5 Å² | 
C/C(=N\C#N)N(C)Cc1ccc(Cl)nc1 [Acetamiprid] | 157.7 Å² | 154.6 Å² | 149.1 Å² | 155.1 Å² | 
Cc1oc2c(NC(=O)c3c(Cl)cccc3Cl)cccc2c1C(C)(C)O | 190.9 Å² | 186.3 Å² | 191.5 Å² |  | 
Cc1cc(N=Nc2ccccc2C)ccc1N [o-Aminoazotoluene] |  | 156 Å² | 157.3 Å² | 155.9 Å² | 
Nc1ccc([As](=O)(O)O)cc1 [(4-Aminophenyl)arsonic acid] | 144.9 Å² | 130.9 Å² | 139 Å² |  | 
CCN(Cc1cccnc1)C(=O)c1cccc(Cl)c1[C@]1(C)C(=O)N(Cc2ccc(OC)cc2OC)c2ccc(Cl)cc21 | 233.4 Å² | 241.2 Å² |  |  | 
CCOP(=O)(OCC)SCCSCC [Demeton-S] | 162.4 Å² |  |  |  | 
Nc1nnc(-c2ccc([N+](=O)[O-])o2)o1 [2-Amino-5-(5-nitro-2-furyl)-1,3,4-oxadiazole] |  |  | 135.3 Å² |  | 
CCOP(=S)(OCC)OP(=S)(OCC)OCC [Sulfotep] | 172.2 Å² |  |  |  | 
CCOC(=O)Cc1ccccc1 [Benzeneacetic acid, ethyl ester] |  |  | 144.3 Å² |  | 
CCOP(=S)(Oc1cnc(C(C)(C)C)nc1)OC(C)C (stereo not drawn) [Tebupirimfos] |  | 177.4 Å² |  | 177.4 Å² | 
OC(Cc1ccccc1Cl)(Cn1cncn1)C1(Cl)CC1 (stereo not drawn) | 184.1 Å² | 167 Å² |  | 167.3 Å² | 
CC(=O)NC1(c2cccc(F)c2)CCN(CC[C@@]2(c3ccc(Cl)c(Cl)c3)CN(c3ccccc3)C(=O)CO2)CC1 | 250.7 Å² | 243.8 Å² |  |  | 
COc1cc(C(C)C)c2c(c1)S(=O)(=O)N(COc1cc(=O)n3cccc(OCCN4CCCCC4)c3n1)C2=O | 230.1 Å² | 226.9 Å² |  | 228 Å² | 
COc1ccn(C)c(=O)c1C#N [Ricinine] | 143 Å² | 132.4 Å² |  | 132.2 Å² | 

Other lines, results leading:

collision cross section in nitrogen [1] | collision cross section in nitrogen [2] | collision cross section in nitrogen [3] | collision cross section in nitrogen [4] | collision cross section in nitrogen [5] | Compound
 | 156.2 Å² |  | 156.9 Å² |  | CCCCCCCCOCCCN [3-(Octyloxy)propan-1-amine]
 | 171.6 Å² | 177.5 Å² | 171.6 Å² |  | COc1ccc(OC)c(N=Nc2c(O)ccc3ccccc23)c1 [C.I. Solvent Red 80]
 | 174.6 Å² | 174.9 Å² | 175 Å² |  | COC(=O)Nc1nc2cc(Sc3ccccc3)ccc2[nH]1 [Fenbendazole]
195.7 Å² | 192 Å² |  | 192.5 Å² |  | O=c1n(CCCN2CCN(c3cccc(Cl)c3)CC2)nc2ccccn12 [Trazodone hydrochloride]
246.1 Å² | 262.3 Å² |  | 262.9 Å² |  | CC(C)(C)NC(=O)[C@@H]1CN(Cc2cccnc2)CCN1C[C@@H](O)C[C@@H](Cc1ccccc1)C(=O)N[C@H]1c2ccccc2C[C@H]1O [Indinavir sulfate]
 |  | 138.7 Å² |  |  | Cc1ccc(C(C)(C)C)c(O)c1 [2-tert-Butyl-5-methylphenol]
 | 142.6 Å² |  |  |  | N#Cc1nc(Cl)c(Cl)c(Cl)c1Cl [3,4,5,6-Tetrachloropyridine-2-carbonitrile]
354.9 Å² |  | 354.9 Å² |  | 355.6 Å² | CC(C)(C)c1cc(CCC(=O)OCC(COC(=O)CCc2cc(C(C)(C)C)c(O)c(C(C)(C)C)c2)(COC(=O)CCc2cc(C(C)(C)C)c(O)c(C(C)(C)C)c2)COC(=O)CCc2cc(C(C)(C)C)c(O)c(C(C)(C)C)c2)cc(C(C)(C)C)c1O [Irganox 1010]
 |  | 143.8 Å² |  |  | Oc1ccc(-c2ccccc2)cc1Cl [3-Chloro[1,1′-biphenyl]-4-ol]
210.8 Å² |  |  |  |  | CCCCCCOC(=O)CCCCCCCC(=O)OCCCCCC [Dihexyl nonanedioate]
210.7 Å² |  |  |  |  | CCOC(=O)COC(=O)c1cc(Oc2ccc(C(F)(F)F)cc2Cl)ccc1[N+](=O)[O-] [Fluoroglycofen-ethyl]
 |  | 160.1 Å² | 156.9 Å² |  | Oc1ccc2ccccc2c1N=Nc1ccccc1 [C.I. Solvent Yellow 14]
192.2 Å² |  |  | 184.1 Å² |  | C[C@]12C=CC(=O)C=C1CC[C@@H]1[C@@H]2C(=O)C[C@@]2(C)[C@H]1CC[C@]2(O)C(=O)CO [Prednisone]
167.5 Å² | 151.1 Å² |  | 151.6 Å² |  | COc1c2occc2c(OC)c2c(=O)cc(C)oc12 [Khellin]
211.4 Å² | 203.8 Å² |  | 204 Å² |  | CN1CCN(c2ccccc2/C=C2\SCCN(c3ccc(Cl)c(Cl)c3)C2=O)CC1 [Elzasonan]
222.3 Å² |  |  |  |  | CCCCC(CC)COC(=O)CCCCCCCC(=O)OCC(CC)CCCC (stereo not drawn) [Bis(2-ethylhexyl) nonanedioate]
 |  |  |  | 123.7 Å² | COc1ccc(O)cc1 [4-Methoxyphenol]
 |  | 92.6 Å² |  |  | I [Potassium iodide]
 | 162.9 Å² | 165.7 Å² | 163 Å² |  | S=C(NC1CCCCC1)NC1CCCCC1 [N,N'-Dicyclohexylthiourea]
 | 126.8 Å² | 123.5 Å² | 126.2 Å² | 123.9 Å² | Nc1nc2ccccc2[nH]1 [2-Aminobenzimidazole]
 | 146.5 Å² | 145.8 Å² | 147.1 Å² |  | Clc1cccc(Cl)c1NC1=NCCN1 [Clonidine hydrochloride]
 | 190.2 Å² | 191.1 Å² |  |  | Nc1c(S(=O)(=O)O)cc(Nc2ccccc2)c2c1C(=O)c1ccccc1C2=O [Acid Blue 25]
 | 130.3 Å² |  |  |  | Nc1nc2[nH]cnc2c(=O)[nH]1 [Guanine]
